Where two headings read alike, the source gives them in different places.
Columns and labels:
[1] = tested on: MT4 CMV-EGFP cells; assay: Toxicity, mock-infected MT4 CMV-EGFP cells; assay type: cell-based, human
Source text: (§1) Assay 1 &2: Antiviral Activity/Toxicity
(§2) Analogously, MT4 cells are engineered with GFP and the constitutional cytomegalovirus (CMV) promotor. […] Cytotoxic investigational compounds reduce GFP levels of mock-infected MT4 CMV-EGFP cells.
(§3) The ratio of CC50 to EC50 is defined as the selectivity index (SI) and is an indication of the selectivity of the anti-HIV activity of the inhibitor. The ultimate monitoring of HIV-1 infection and cytotoxicity is done using a scanning microscope. Image analysis allows very sensitive detection of viral infection. Measurements are done before cell necrosis, which usually takes place about five days after infection, in particular measurements are performed three days after infection.
(§4) A pEC50 value corresponds to −log10(EC50). A pCC50 value corresponds to −log10(CC50).

[2] = tested on: wild-type HIV-1IIIB strain; assay: Antiviral activity, MT4 LTR-EGFP cellular assay; assay type: cell-based; parameters: key to Antiviral activity IIIB (pEC50): pEC50 = -log10(EC50); settings: for EC50: read-out: Antiviral activity IIIB (pEC50) (converted)
Protocol: as §1
The compounds of the present invention were tested for antiviral activity in a cellular assay, which was performed according to the following procedure.
The human T-cell line MT4 is engineered with Green Fluorescent Protein (GFP) and an HIV-specific promoter, HIV-1 long terminal repeat (LTR). This cell line is designated MT4 LTR-EGFP, and can be used for the in vitro evaluation of anti-HIV activity of investigational compounds. In HIV-1 infected cells, the Tat protein is produced which upregulates the LTR promotor and finally leads to stimulation of the GFP reporter production, allowing measuring ongoing HIV-infection fluorometrically.
as §3, §4

[3] = molecular target: T1, CYP2C19 (Homo sapiens, UniProt P33261); assay: CYP450 inhibition CDNA-CYP2C19-CEC; settings: 10 μM test compound, substrate CEC 25 μM, 30 min
Protocol: (§6) Inhibition of the metabolism of test compounds by different CYP P450 isoenzymes was determined using E. coli expressed proteins (3A4, 2C9, 2D6, 1A2, and 2C19) that convert their specific substrates into a fluorescent molecule (Table 6). This fluorescent molecule was measured using a fluorescent plate reader (Victor2 (Wallac) or Fluoroskan (Labsystems)). […] CYP P450 enzymes were prepared in house or commercially bought and stored at −80° C.
(§7) The assay was performed in black 96 well Costar plates. Test compounds were added to a CYP P450 enzyme solution in the presence of an NADPH generating system. After 5 min of preincubation at 37° C., the freshly prepared, phosphate buffered (pH 7.4) substrate solution was added. Known CYP P450 inhibitors were used as positive controls, negative controls were run without CYP P450 enzyme. […] Reaction mixtures were incubated at 37° C. for 30 min (CYP3A4-BFC), 30 min (CYP3A4-BQ), 10 min (CYP3A4-DBF), 15 min (CYP1A2-CEC), 30 min (CYP2C9-MFC, CYP2C19-CEC), or 45 min (CYP2D6-AMMC), respectively. Then, the reaction was stopped by the addition of 200 μl acetonitrile, and the fluorescent signal was detected.
(§8) Calculation of CYP P450 isoenzyme inhibition (% inh.):
(§9) % activity=(100/(average positive control−average negative control))×(average sample−average negative control)

[4] = Metabolic stability of test compounds (HLM15'); assay type: in vitro ADME, human; settings: human liver microsomes 1 mg/ml, 5 μM test compound, 15 min; for recovery at 15 min, 5 μM: pH 7.4, read-out: Metabolic stability (HLM, % recovery after 15')
Source text: Human liver tissue is rinsed in ice-cold 0.1 M Tris-HCl (pH 7.4) buffer to wash excess blood. Tissue is then blotted dry, weighed and chopped coarsely using surgical scissors. The tissue pieces are homogenized in 3 volumes of ice-cold 0.1 M phosphate buffer (pH 7.4) using either a Potter-S (Braun, Italy) equipped with a Teflon pestle or a Sorvall Omni-Mix homogenizer, for 7×10 sec. In both cases, the vessel is kept in/on ice during the homogenization process. Tissue homogenates are centrifuged at 9000×g for 20 min at 4° C. using a Sorvall centrifuge or Beckman Ultracentrifuge. The resulting supernatant can be stored at −80° C. and is designated ‘S9’. The S9 fraction is centrifuged at 100,000×g for 60 min at 4° C. using a Beckman ultracentrifuge. The resulting supernatant is carefully aspirated, aliquoted and designated ‘cytosol’. The pellet is re-suspended in 0.1 M phosphate buffer (pH 7.4) in a final volume of 1 ml per 0.5 g original tissue weight and designated ‘microsomes’. All sub-cellular fractions are aliquoted, immediately frozen in liquid nitrogen and stored at −80° C. until use.
Heat-inactivated (10 min at 95° C.) ‘S9’ or microsomes were used for blank experiments. […] The reaction was incubated for 0 or 15 min. Next, the reaction was stopped by addition of 2 volumes of DMSO (or acetonitrile). Samples were centrifuged (10 min, 900×g) and analyzed by LC-MS.

[5] = molecular target: CYP2D6 (Homo sapiens, UniProt P10635); assay: in vitro; settings: pH 7.4
Protocol: as §6, §7, §8, §9

[6] = molecular target: T2, CYP3A4 (Homo sapiens, UniProt P08684); assay: CYP450 inhibition CDNA-CYP3A4-BQ; settings: for inhibition at 30 min, 10 μM: human, E. coli expressed CYP3A4, pH 7.4, probe BQ 60 μM; for Cyp450 inhibition: CDNA-CYP3A4-BQ (% inhibition): 10 μM test compound, substrate BQ 60 μM, 30 min
Source text: (§5) Assay 4: CYP450 Inhibition

[7] = molecular target: T1, CYP2C19; assay: in vitro; settings: E. coli expressed CYP2C19, pH 7.4, probe CEC 25 μM
Protocol: as §6, §7, §8, §9

[8] = Toxicity, mock-infected MT4 CMV-EGFP cells; assay type: cell-based, human; settings: human; for CC50 at 3 days: mock-infected MT4 CMV-EGFP cells, read-out: Toxicity MT4 (pCC50) (converted)
Source text: as §1, §2, §3, §4

[9] = molecular target: T3, CYP1A2 (Homo sapiens, UniProt P05177); assay: in vitro; settings: E. coli expressed CYP1A2, pH 7.4, probe CEC 5 μM
T3 sequence (P05177 1-516): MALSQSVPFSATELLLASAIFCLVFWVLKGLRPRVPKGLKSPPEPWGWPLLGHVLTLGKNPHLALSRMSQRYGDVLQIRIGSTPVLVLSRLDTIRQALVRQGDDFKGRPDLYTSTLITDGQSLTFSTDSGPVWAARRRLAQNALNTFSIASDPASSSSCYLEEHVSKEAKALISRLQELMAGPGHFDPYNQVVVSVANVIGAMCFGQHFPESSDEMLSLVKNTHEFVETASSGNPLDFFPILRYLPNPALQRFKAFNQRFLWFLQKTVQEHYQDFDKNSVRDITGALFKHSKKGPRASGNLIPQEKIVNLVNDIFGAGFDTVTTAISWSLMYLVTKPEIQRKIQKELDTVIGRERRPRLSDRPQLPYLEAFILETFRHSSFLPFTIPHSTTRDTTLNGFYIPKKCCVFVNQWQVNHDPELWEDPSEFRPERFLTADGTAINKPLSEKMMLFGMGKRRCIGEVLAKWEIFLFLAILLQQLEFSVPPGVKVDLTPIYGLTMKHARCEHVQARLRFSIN
Protocol: as §6, §7, §8, §9

[10] = molecular target: T2, CYP3A4; assay: in vitro; settings: human, pH 7.4
Source text: as §5

[11] = molecular target: CYP2C9 (Homo sapiens, UniProt P11712); assay: in vitro; settings: for inhibition at 30 min, 10 μM: human, pH 7.4
Source text: as §5

[12] = molecular target: T2, CYP3A4; assay: CYP450 inhibition CDNA-CYP3A4-BFC; settings: for inhibition at 30 min, 10 μM: human, E. coli expressed CYP3A4, pH 7.4, probe BFC 150 μM; for Cyp450 inhibition: CDNA-CYP3A4-BFC (% inhibition): 10 μM test compound, substrate BFC 150 μM, 30 min
Source text: as §5

[13] = wild-type HIV-1 IIIB, MT4 LTR-EGFP cells, three days after infection
[14] = Human immunodeficiency virus 1, 72 h, wild-type HIV-1 IIIB, MT4 LTR-EGFP cells, three days after infection

T2 sequence (P08684 whole entry): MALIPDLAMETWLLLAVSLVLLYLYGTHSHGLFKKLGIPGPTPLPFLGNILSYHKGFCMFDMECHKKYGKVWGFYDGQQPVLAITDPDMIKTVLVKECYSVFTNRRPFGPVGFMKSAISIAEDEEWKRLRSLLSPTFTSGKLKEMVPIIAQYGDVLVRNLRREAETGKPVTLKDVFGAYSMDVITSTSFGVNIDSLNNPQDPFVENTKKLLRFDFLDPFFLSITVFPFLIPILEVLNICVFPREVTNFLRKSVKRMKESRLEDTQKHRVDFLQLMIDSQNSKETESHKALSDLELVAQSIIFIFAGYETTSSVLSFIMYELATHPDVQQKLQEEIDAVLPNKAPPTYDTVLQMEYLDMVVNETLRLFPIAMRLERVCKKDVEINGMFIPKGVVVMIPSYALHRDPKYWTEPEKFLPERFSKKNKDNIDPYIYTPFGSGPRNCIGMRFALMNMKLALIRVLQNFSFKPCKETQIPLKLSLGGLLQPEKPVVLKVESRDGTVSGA
CYP2C9, sequence (P11712 whole entry): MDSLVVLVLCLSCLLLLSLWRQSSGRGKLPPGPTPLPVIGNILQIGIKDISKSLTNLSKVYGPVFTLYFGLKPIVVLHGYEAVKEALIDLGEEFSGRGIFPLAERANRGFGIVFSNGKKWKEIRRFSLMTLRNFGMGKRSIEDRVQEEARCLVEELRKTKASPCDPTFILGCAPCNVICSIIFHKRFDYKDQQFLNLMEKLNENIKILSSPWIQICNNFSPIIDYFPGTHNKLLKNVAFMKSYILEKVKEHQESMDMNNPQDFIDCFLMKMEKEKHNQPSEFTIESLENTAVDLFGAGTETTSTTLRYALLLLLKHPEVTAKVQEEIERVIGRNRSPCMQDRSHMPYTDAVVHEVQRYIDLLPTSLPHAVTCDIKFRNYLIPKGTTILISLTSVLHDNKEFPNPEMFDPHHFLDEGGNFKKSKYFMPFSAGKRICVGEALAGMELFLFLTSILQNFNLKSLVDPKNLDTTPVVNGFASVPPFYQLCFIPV
T1 sequence (P33261 whole entry): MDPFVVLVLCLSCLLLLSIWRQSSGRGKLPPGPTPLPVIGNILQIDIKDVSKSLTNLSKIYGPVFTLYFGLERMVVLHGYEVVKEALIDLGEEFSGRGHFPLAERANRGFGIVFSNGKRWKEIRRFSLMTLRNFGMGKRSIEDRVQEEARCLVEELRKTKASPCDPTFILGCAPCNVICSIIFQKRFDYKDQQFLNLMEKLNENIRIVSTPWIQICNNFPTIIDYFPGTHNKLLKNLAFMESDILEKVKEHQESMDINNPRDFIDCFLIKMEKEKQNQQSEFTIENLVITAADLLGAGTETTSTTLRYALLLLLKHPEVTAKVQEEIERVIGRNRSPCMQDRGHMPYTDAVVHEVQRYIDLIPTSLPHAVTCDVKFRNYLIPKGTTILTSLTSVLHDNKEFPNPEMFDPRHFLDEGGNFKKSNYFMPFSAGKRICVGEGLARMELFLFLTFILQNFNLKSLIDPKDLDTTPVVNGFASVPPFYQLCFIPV
CYP2D6, sequence (P10635 whole entry): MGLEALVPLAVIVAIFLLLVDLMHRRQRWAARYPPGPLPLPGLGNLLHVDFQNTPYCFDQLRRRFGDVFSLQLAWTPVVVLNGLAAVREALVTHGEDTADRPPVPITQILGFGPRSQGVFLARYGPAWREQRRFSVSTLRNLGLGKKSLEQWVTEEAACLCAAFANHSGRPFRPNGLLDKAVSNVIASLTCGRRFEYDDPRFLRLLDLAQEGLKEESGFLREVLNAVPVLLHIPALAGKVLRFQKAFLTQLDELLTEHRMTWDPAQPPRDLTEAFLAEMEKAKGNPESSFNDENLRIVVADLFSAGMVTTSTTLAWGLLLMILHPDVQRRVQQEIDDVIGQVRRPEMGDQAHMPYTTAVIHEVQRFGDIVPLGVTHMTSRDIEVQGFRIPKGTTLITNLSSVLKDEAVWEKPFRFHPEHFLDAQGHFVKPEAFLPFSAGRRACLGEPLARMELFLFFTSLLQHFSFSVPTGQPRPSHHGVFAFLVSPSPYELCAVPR

Compound	Antiviral activity IIIB (pEC50) [2, 13]	Cyp450 inhibition: CDNA-CYP2C19-CEC (% inhibition) [3] [%]	Metabolic stability (HLM, % recovery after 15') [4] [%]	inhibition at 45 min, 10 μM [5] [%]	inhibition at 30 min, 10 μM [6] [%]	inhibition at 30 min, 10 μM [7] [%]	EC50 [2, 14] [µM]	inhibition at 15 min, 10 μM [9] [%]	inhibition at 10 min, 10 μM [10] [%]	inhibition at 30 min, 10 μM [11] [%]	recovery at 15 min, 5 μM [4] [%]	inhibition at 30 min, 10 μM [12] [%]	Cyp450 inhibition: CDNA-CYP3A4-BQ (% inhibition) [6] [%]	Cyp450 inhibition: CDNA-CYP2C9-MFC (% inhibition) [11] [%]	Cyp450 inhibition: CDNA-CYP3A4-BFC (% inhibition) [12] [%]	EC50 ([2]; Human immunodeficiency virus 1, IIIB, 72 h) [µM]	Toxicity MT4 (pCC50) [1]	CC50 at 3 days [8] [µM]	CC50 [8] [µM]
CC(C)CN(C[C@@H](O)[C@H](Cc1ccccc1)NC(=O)OCc1cncs1)C(=O)c1ccc2nc(N3CCCC3)oc2c1 [Compound C2]	<4.00	92	78	–	–	–	–	–	–	–	–	–	–	–	–	–	<4.00	–	–
CC(C)CN(C[C@@H](O)[C@H](Cc1ccccc1)NC(=O)OCc1cncs1)C(=O)c1ccc2nc(N3CCCCC3)oc2c1 [Compound C3, Thiazol-5-ylmethyl (2S,3R)-3-hydroxy-4-(N-isobutyl-2-(piperidin-1y1)-benzo[d]oxazole-6-carboxamido)-1-phenylbutan-2-ylcarbamate]	–	–	–	45	80	90	36.3	19	95	100	71	95	–	–	–	–	–	32.4	–
O=C(N[C@@H](Cc1ccccc1)[C@H](O)CN(CCN1CCCC1)C(=O)c1ccc2nc(N3CCCC3)oc2c1)OCc1cncs1 [Compound C13]	=4.24	46	81	–	–	–	–	–	–	–	–	–	76	42	91	–	<4.00	–	–
CN(C)CCN(C[C@@H](O)[C@H](Cc1ccccc1)NC(=O)OCc1cncs1)C(=O)c1ccc2nc(N3CCCC3)oc2c1 [Compound C17]	<4.00	46	55	–	–	–	–	–	–	–	–	–	79	34	95	–	<4.00	–	–
O=C(N[C@@H](Cc1ccccc1)[C@H](O)CN(CCN1CCOCC1)C(=O)c1ccc2nc(N3CCCC3)oc2c1)OCc1cncs1 [Compound C20]	<4.00	65	65	–	–	–	–	–	–	–	–	–	81	72	96	–	<4.00	–	–
CCN(C)c1nc2ccc(C(=O)N(CC(C)C)C[C@@H](O)[C@H](Cc3ccc(F)cc3)NC(=O)OCc3cncs3)cc2o1 [Compound C53, Thiazol-5-ylmethyl (2S,3R)-4-(2-(ethyl(methyl)amino)-N-isobutylbenzo[d]-oxazole-6-carboxamido)-1-(4-fluorophenyl)-3-hydroxybutan-2-ylcarbamate]	–	–	–	61	–	95	46.8	0	–	96	71	–	–	–	–	–	–	–	50.1

The next lines start with results.

Antiviral activity IIIB (pEC50) [2, 13]	Cyp450 inhibition: CDNA-CYP2C19-CEC (% inhibition) [3] [%]	Metabolic stability (HLM, % recovery after 15') [4] [%]	inhibition at 45 min, 10 μM [5] [%]	inhibition at 30 min, 10 μM [6] [%]	inhibition at 30 min, 10 μM [7] [%]	EC50 [2, 14] [µM]	inhibition at 15 min, 10 μM [9] [%]	inhibition at 10 min, 10 μM [10] [%]	inhibition at 30 min, 10 μM [11] [%]	recovery at 15 min, 5 μM [4] [%]	inhibition at 30 min, 10 μM [12] [%]	Cyp450 inhibition: CDNA-CYP3A4-BQ (% inhibition) [6] [%]	Cyp450 inhibition: CDNA-CYP2C9-MFC (% inhibition) [11] [%]	Cyp450 inhibition: CDNA-CYP3A4-BFC (% inhibition) [12] [%]	EC50 ([2]; Human immunodeficiency virus 1, IIIB, 72 h) [µM]	Compound	Toxicity MT4 (pCC50) [1]	CC50 at 3 days [8] [µM]	CC50 [8] [µM]
<4.00	90	71	–	–	–	–	–	–	–	–	–	81	100	96	–	CN(C[C@@H](O)[C@H](Cc1ccccc1)NC(=O)OCc1cncs1)C(=O)c1ccc2nc(N3CCCC3)oc2c1 [Compound C21]	<4.00	–	–
<4.00	83	72	–	–	–	–	–	–	–	–	–	79	99	98	–	CC(C)(O)CN(C[C@@H](O)[C@H](Cc1ccccc1)NC(=O)OCc1cncs1)C(=O)c1ccc2nc(N3CCCC3)oc2c1 [Compound C28]	<4.00	–	–
–	–	–	87	–	100	20.9	27	–	98	54	–	–	–	–	–	CCN(C)c1nc2ccc(C(=O)N(CC3CCCCC3)C[C@@H](O)[C@H](Cc3ccccc3)NC(=O)OCc3cncs3)cc2o1 [Compound C32, Thiazol-5-ylmethyl (2S,3R)-4-(N-(cyclohexylmethyl)-2-(ethyl(methyl)-amino)benzo[d]oxazole-6-carboxamido)-3-hydroxy-1-phenylbutan-2-yl-carbamate]	–	21.4	–
=4.35	92	71	–	–	–	–	–	–	–	–	–	79	96	97	–	CC(C)(C)CN(C[C@@H](O)[C@H](Cc1ccccc1)NC(=O)OCc1cncs1)C(=O)c1ccc2nc(N3CCCC3)oc2c1 [Compound C37]	=4.31	–	–
–	–	–	51	77	87	–	2	92	95	–	95	–	–	–	87.1	CCc1nc2ccc(C(=O)N(CC(C)C)C[C@@H](O)[C@H](Cc3ccccc3)NC(=O)OCc3cncs3)cc2o1 [Compound C39, Thiazol-5-ylmethyl (2S,3R)-4-(2-ethyl-N-isobutylbenzo[d]oxazole-6-carboxamido)-3-hydroxy-1-phenylbutan-2-ylcarbamate]	–	> 100	–
=4.53	96	78	–	–	–	–	–	–	–	–	–	85	98	95	–	O=C(N[C@@H](Cc1ccccc1)[C@H](O)CN(CC1CCC(F)(F)CC1)C(=O)c1ccc2nc(N3CCCC3)oc2c1)OCc1cncs1 [Compound C47]	=4.38	–	–

— patent US8350048B2, “Amide compounds as boosters of antivirals” (Janssen R&D Ireland, priority 2007, dated 2013)
